Source: US20140288044A1, “COMPOSITIONS AND THERAPEUTIC USES OF IKK-RELATED KINASE EPSILON AND TANKBINDING KINASE 1 INHIBITORS” (Alzheimer's Institute of America, Inc., priority 2011, published 2014)
Read-outs that look alike come from different tables or passages of the source.

Columns and labels:
[1] = target: T1, IKKε (Homo sapiens, UniProt Q14164); test: In-vitro IKKε kinase assay (radiolabelled ATP, filterplate); format: biochemical
T1 construct: His-tag (in-house Sf9 preparation) or GST-tag (purchased Invitrogen preparation); these are alternatives, not both on one protein; host or cells: Sf9 cells
T1 sequence (Q14164 1-716): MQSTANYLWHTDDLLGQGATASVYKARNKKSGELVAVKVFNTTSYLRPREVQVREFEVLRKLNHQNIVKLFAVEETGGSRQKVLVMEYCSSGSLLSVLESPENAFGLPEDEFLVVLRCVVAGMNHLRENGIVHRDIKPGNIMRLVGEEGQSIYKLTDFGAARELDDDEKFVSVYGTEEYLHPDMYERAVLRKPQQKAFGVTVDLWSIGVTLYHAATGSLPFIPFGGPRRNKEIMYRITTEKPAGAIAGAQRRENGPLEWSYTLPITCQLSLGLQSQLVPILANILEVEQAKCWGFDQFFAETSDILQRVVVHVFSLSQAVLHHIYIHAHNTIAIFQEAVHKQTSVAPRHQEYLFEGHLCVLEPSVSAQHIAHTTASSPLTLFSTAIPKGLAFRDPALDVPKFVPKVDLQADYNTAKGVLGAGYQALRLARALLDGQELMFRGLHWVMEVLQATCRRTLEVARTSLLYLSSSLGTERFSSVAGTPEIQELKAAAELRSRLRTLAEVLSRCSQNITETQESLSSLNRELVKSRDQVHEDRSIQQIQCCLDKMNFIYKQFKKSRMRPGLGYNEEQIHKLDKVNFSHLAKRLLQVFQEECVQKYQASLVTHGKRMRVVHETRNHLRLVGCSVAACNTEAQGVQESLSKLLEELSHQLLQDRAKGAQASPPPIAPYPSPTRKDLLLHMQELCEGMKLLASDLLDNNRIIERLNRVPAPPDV
Method in brief: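 His-tagged IKKε from Sf9 cells or GST-tagged IKKε, with myelin basic protein, casein or dephosphorylated casein as substrate and 32 μM ATP (2× Km) plus [γ^33]ATP. "Normal" assay used 0.1 μg/ml enzyme; "sensitized" used 0.015 μg/ml with dephosphorylated casein only. Stopped after 30–45 min with phosphoric acid; P-81 filter counts normalized to DMSO after background subtraction.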

[2] = system: IKKε-mediated phosphorylation of IRF3; test: ELISA for in-situ phosphorylation of IRF3 (phospho-Ser396) in HEK293T cells cotransfected with IRF3 and IKKε; format: cell-based; conditions: Homo sapiens, HEK-293T, 20 h, HEK293T cells, 20 hours, read-out: IC50, in-situ IKKε-mediated phosphorylation of IRF3
Experimental: HEK293T cells were cotransfected in a 10-cm dish with IRF3 and IKKε expression plasmids using Lipofectamine 2000 (Invitrogen, Carlsbad, Calif.). The following day, cells were replated at 20,000 per well in 96-well plates and treated with test compounds (compounds according to Formulae I and/or II) for 20 hours. Cell lysates were prepared and analyzed using an ELISA for phospho-Ser396 (anti-IRF3 capture antibody, Santa Cruz Biotechnology, Inc., Santa Cruz, Calif.; anti-p-Ser396 IRF3 detection antibody, Cell Signaling, Danvers, Mass.). pIRF3 levels in compound treated cells were normalized to DMSO treated cells (no compound). Cell viability was assayed in a parallel set of plates to monitor cytotoxic effects of the test compounds (CellTiter-Glo, Promega, Inc., Madison, Wis.). TBK1 activity was tested by Western blotting using a phospho-specific IRF7 antibody. Similar to above, HEK293T cells were transfected with IRF7 and TBK1 expression plasmids. Cells were seeded in 12-well plates at 150,000 per well and treated overnight with test compounds. Protein lysates were prepared and processed for Western blotting followed by detection using a phosphor-Ser477/Ser479 IRF7 antibody (BD Biosciences, San Jose, Calif.)

[3] = "sensitized" assay, read-out: IC50, inhibition of the kinase activity of IKKε
[4] = in-vitro IKKε kinase inhibition assays, given as 0.005 μM (5 nM), read-out: IKKε kinase inhibitory activity (IC50 value)
[5] = range given from about 1 μM to about 250 nM

Compound: N#Cc1cc(-c2ccnc(Nc3ccc(C4CC4)nc3)n2)ccc1OC1CCOCC1 [Example Compound 4, 5-{2-[(6-Cyclopropylpyridin-3-yl)amino]pyrimidin-4-yl}-2-(tetrahydro-2H-pyran-4-yloxy)benzonitrile]
- IC50 [1, 3]: < 5 nM
- IC50 [1, 4]: < 5 nM
- IC50 [2]: < 100 nM

Compound: CCN(CC)c1ccc(Nc2nccc(-c3ccc(NC(=O)C4CC4)c(C#N)c3)n2)cn1 [Example Compound 139, N-[2-Cyano-4-(2-{[6-(diethylamino)pyridin-3-yl]amino}pyrimidin-4-yl)phenyl]cyclopropanecarboxamide]
- IC50 [1, 3]: < 5 nM
- IC50 [1, 4]: < 5 nM
- IC50 [2, 5]: 250 to 1000 nM

Compound: Cn1cc(-c2cc(Nc3nccc(-c4ccc(OC5CCOCC5)c(C#N)c4)n3)ccn2)cn1 [Example Compound 82, 5-(2-{[2-(1-Methyl-1H-pyrazol-4-yl)pyridin-4-yl]amino}pyrimidin-4-yl)-2-(tetrahydro-2H-pyran-4-yloxy)benzonitrile]
- IC50 [1, 3]: < 5 nM
- IC50 [1, 4]: < 5 nM
- IC50 [2]: < 100 nM

Compound: CN(Cc1ccc(Nc2nccc(-c3ccc(OC4CCOCC4)c(C#N)c3)n2)cn1)C(=O)C(C)(C)O [Example Compound 205, N-{[5-({4-[3-Cyano-4-(tetrahydro-2H-pyran-4-yloxy)phenyl]pyrimidin-2-yl}amino)pyridin-2-yl]methyl}-2-hydroxy-N,2-dimethylpropanamide]
- IC50 [1, 3]: < 5 nM
- IC50 [2]: < 100 nM

Compound: N#Cc1cc(-c2ccnc(Nc3ccnc(N4CCN(CCO)CC4)c3)n2)ccc1NC(=O)C1CC1 [Example Compound 143, N-{2-Cyano-4-[2-({2-[4-(2-hydroxyethyl)piperazin-1-yl]pyridin-4-yl}amino)pyrimidin-4-yl]phenyl}cyclopropanecarboxamide]
- IC50 [1, 3]: < 5 nM
- IC50 [1, 4]: < 5 nM
- IC50 [2]: < 100 nM

Compound: CCOc1ccc(Nc2nccc(-c3ccc(OC4CCOCC4)c(C#N)c3)n2)cn1 [Example Compound 8, 5-{2-[(6-Ethoxypyridin-3-yl)amino]pyrimidin-4-yl}-2-(tetrahydro-2H-pyran-4-yloxy)benzonitrile]
- IC50 [1, 3]: < 5 nM
- IC50 [1, 4]: < 5 nM
- IC50 [2, 5]: 250 to 1000 nM

Compound: COCCNc1cc(Nc2nccc(-c3ccc(OC4CCN(C(=O)CO)CC4)c(C#N)c3)n2)ccn1 [Example Compound 238, 2-{[1-(Hydroxyacetyl)piperidin-4-yl]oxy}-5-[2-({2-[(2-methoxyethyl)amino]pyridin-4-yl}amino)pyrimidin-4-yl]benzonitrile]
- IC50 [1, 3]: < 5 nM
- IC50 [2, 5]: 250 to 1000 nM

Compound: CN(Cc1ccc(Nc2nccc(-c3ccc(OC4CCOCC4)c(C#N)c3)n2)cn1)S(C)(=O)=O [Example Compound 206, N-{[5-({4-[3-Cyano-4-(tetrahydro-2H-pyran-4-yloxy)phenyl]pyrimidin-2-yl}amino)pyridin-2-yl]methyl}-N-methylmethanesulfonamide]
- IC50 [1, 3]: < 5 nM
- IC50 [2]: < 100 nM

Compound: CN(Cc1ccc(Nc2nccc(-c3ccc(OC4CCOCC4)c(C#N)c3)n2)cn1)C(=O)C1(O)CC1 [Example Compound 59, N-{[5-({4-[3-Cyano-4-(tetrahydro-2H-pyran-4-yloxy)phenyl]pyrimidin-2-yl}amino)pyridin-2-yl]methyl}-1-hydroxy-N-methylcyclopropanecarboxamide]
- IC50 [1, 4]: < 5 nM
- IC50 [2, 5]: 250 to 1000 nM

Compound: N#Cc1cc(-c2ccnc(Nc3ccnc(CN4CC(O)C4)c3)n2)ccc1OC1CCOCC1 [Example Compound 70, 5-[2-({2-[(3-Hydroxyazetidin-1-yl)methyl]pyridin-4-yl}amino)pyrimidin-4-yl]-2-(tetrahydro-2H-pyran-4-yloxy)benzonitrile]
- IC50 [1, 4]: < 5 nM
- IC50 [2, 5]: 250 to 1000 nM

Compound: N#Cc1cc(-c2ccnc(Nc3ccc(-n4ccnc4)nc3)n2)ccc1OC1CCOCC1 [Example Compound 75, 5-(2-{[6-(1H-Imidazol-1-yl)pyridin-3-yl]amino}pyrimidin-4-yl)-2-(tetrahydro-2H-pyran-4-yloxy)benzonitrile]
- IC50 [1, 4]: < 5 nM
- IC50 [2]: < 100 nM

Compound: COc1cc(Nc2nccc(-c3ccc(O[C@@H]4CCN(C(=O)CO)C4)c(C#N)c3)n2)ccn1 [Example Compound 225, 2-{[(3R)-1-(Hydroxyacetyl)pyrrolidin-3-yl]oxy}-5-{2-[(2-methoxypyridin-4-yl)amino]pyrimidin-4-yl}benzonitrile]
- IC50 [1, 3]: < 5 nM
- IC50 [2]: 1000 to 5000 nM

Compound: N#Cc1cc(-c2ccnc(Nc3ccc(-c4cccnc4)nc3)n2)ccc1OC1CCOCC1 [Example Compound 79, 5-[2-(2,3′-Bipyridin-5-ylamino)pyrimidin-4-yl]-2-(tetrahydro-2H-pyran-4-yloxy)benzonitrile]
- IC50 [1, 3]: < 5 nM
- IC50 [1, 4]: < 5 nM
- IC50 [2, 5]: 250 to 1000 nM

Compound: COC1CN(Cc2cc(Nc3nccc(-c4ccc(OC5CCOCC5)c(C#N)c4)n3)ccn2)C1 [Example Compound 219, 5-[2-({2-[(3-Methoxyazetidin-1-yl)methyl]pyridin-4-yl}amino)pyrimidin-4-yl]-2-(tetrahydro-2H-pyran-4-yloxy)benzonitrile]
- IC50 [1, 3]: < 5 nM
- IC50 [2]: 1000 to 5000 nM

Compound: CN(CCS(C)(=O)=O)Cc1ccc(Nc2nccc(-c3ccc(OC4CCOCC4)c(C#N)c3)n2)cn1 [Example Compound 207, 5-(2-{[6-({Methyl[2-(methylsulfonyl)ethyl]amino}methyl)pyridin-3-yl]amino}pyrimidin-4-yl)-2-(tetrahydro-2H-pyran-4-yloxy)benzonitrile]
- IC50 [1, 3]: < 5 nM
- IC50 [2, 5]: 250 to 1000 nM

Compound: N#Cc1cc(-c2ccnc(Nc3ccc(N4CC(O)C4)nc3)n2)ccc1OC1CCOCC1 [Example Compound 215, 5-(2-{[6-(3-Hydroxyazetidin-1-yl)pyridin-3-yl]amino}pyrimidin-4-yl)-2-(tetrahydro-2H-pyran-4-yloxy)benzonitrile]
- IC50 [1, 3]: < 5 nM
- IC50 [2]: < 100 nM

Compound: CNC(=O)c1cncc(Nc2nccc(-c3ccc(OC4CCOCC4)c(C#N)c3)n2)c1 [Example Compound 12, 5-({4-[3-Cyano-4-(tetrahydro-2H-pyran-4-yloxy)phenyl]pyrimidin-2-yl}amino)-N-methylpyridine-3-carboxamide]
- IC50 [1, 3]: < 5 nM
- IC50 [1, 4]: < 5 nM
- IC50 [2]: 1000 to 5000 nM

Compound: Cc1ccc(Nc2nccc(-c3ccc(OC4CCN(C(=O)CO)CC4)c(C#N)c3)n2)cn1 [Example Compound 130, 2-{[1-(Hydroxyacetyl)piperidin-4-yl]oxy}-5-{2-[(6-methylpyridin-3-yl)amino]pyrimidin-4-yl}benzonitrile]
- IC50 [1, 4]: < 5 nM
- IC50 [2]: 1000 to 5000 nM

Compound: N#Cc1cc(-c2ccnc(Nc3ccc(N4CCOCC4)nc3)n2)ccc1O[C@@H]1CCN(C(=O)CO)C1 [Example Compound 119, 2-{[(3R)-1-(Hydroxyacetyl)pyrrolidin-3-yl]oxy}-5-(2-{[6-(morpholin-4-yl)pyridin-3-yl]amino}pyrimidin-4-yl)benzonitrile]
- IC50 [1, 3]: < 5 nM
- IC50 [1, 4]: < 5 nM
- IC50 [2]: 100 to 250 nM

Compound: N#Cc1cc(-c2ccnc(Nc3cncc(CN4CCOCC4)c3)n2)ccc1OC1CCOCC1 [Example Compound 185, 5-(2-{[5-(Morpholin-4-ylmethyl)pyridin-3-yl]amino}pyrimidin-4-yl)-2-(tetrahydro-2H-pyran-4-yloxy)benzonitrile]
- IC50 [1, 3]: < 5 nM
- IC50 [2, 5]: 250 to 1000 nM

Compound: CNCc1ccc(Nc2nccc(-c3ccc(OC4CCOCC4)c(C#N)c3)n2)cn1 [Example Compound 52, 5-[2-({6-[(Methylamino)methyl]pyridin-3-yl}amino)pyrimidin-4-yl]-2-(tetrahydro-2H-pyran-4-yloxy)benzonitrile]
- IC50 [1, 3]: < 5 nM
- IC50 [1, 4]: < 5 nM
- IC50 [2, 5]: 250 to 1000 nM
